From patent publication US20260297542A1, “HERBICIDE RESISTANT PLANTS” (SYNGENTA CROP PROTECTION AG, priority 2023, published 2026)
Numbering of substitutions follows the chain as printed.

Experiments:
Test in all cases: E. coli hemG growth inhibition by herbicide, AtPPO1 variant
Assay type in all cases: cell-based
Details in all cases: read-out: percentage growth inhibition
AtPPO1 G481K = target: T1, AtPPO1 G481K (Arabidopsis thaliana, UniProt P55826, G481K)
T1 construct: expressed in transfected cells; host or cells: E. coli BL21(DE3) hemG, pET24a plasmid
T1 sequence (P55826 35-537 G481K): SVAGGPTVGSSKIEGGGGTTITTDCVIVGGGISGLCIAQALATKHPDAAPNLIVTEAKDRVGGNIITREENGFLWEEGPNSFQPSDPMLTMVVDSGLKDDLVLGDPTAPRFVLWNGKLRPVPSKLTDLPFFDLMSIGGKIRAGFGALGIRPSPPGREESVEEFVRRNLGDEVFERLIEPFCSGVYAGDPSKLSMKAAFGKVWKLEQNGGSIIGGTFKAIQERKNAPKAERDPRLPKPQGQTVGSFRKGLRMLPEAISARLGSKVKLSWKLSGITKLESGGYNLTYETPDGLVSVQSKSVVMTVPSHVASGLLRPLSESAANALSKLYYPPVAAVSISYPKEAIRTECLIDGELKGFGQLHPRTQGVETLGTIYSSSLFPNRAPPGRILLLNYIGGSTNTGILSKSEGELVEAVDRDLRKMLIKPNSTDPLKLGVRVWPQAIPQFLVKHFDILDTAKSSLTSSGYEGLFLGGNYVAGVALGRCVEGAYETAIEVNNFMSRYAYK
Method in brief: (§1)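 E. coli BL21(DE3) ΔhemG::CmR complemented by AtPPO1 variants (pET24a, T7, E. coli codon-optimised); TB + 0.1 mM IPTG, 1:100 inoculum; 6.25 ppm herbicide 0/E or 0.78 ppm herbicide B vs DMSO; 24 h, 37° C, 250 rpm; OD600 at 24 h → % growth inhibition.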

AtPPO1 K281E = target: T2, AtPPO1 K281E (Arabidopsis thaliana, UniProt P55826, K281E)
T2 construct: expressed in transfected cells; host or cells: E. coli BL21(DE3) hemG (hemG replaced by CmR), pET24a plasmid
T2 sequence (P55826 35-537 K281E): T1 sequence (P55826 35-537 G481K) with K247E, K447G
Method in brief: as §1

AtPPO1 P154Y = target: T3, AtPPO1 P154Y (Arabidopsis thaliana, UniProt P55826, P154Y)
T3 construct: expressed in transfected cells; host or cells: E. coli BL21(DE3) hemG (hemG replaced by CmR), pET24a plasmid
T3 sequence (P55826 35-537 P154Y): T1 sequence (P55826 35-537 G481K) with P120Y, K447G
Method in brief: as §1

AtPPO1 Q272I = target: T4, AtPPO1 Q272I (Arabidopsis thaliana, UniProt P55826, Q272I)
T4 construct: expressed in transfected cells; host or cells: E. coli BL21(DE3) hemG (hemG replaced by CmR), pET24a plasmid
T4 sequence (P55826 35-537 Q272I): T1 sequence (P55826 35-537 G481K) with Q238I, K447G
Method in brief: as §1

Row | Compound | inhibition at 6.25 ppm (AtPPO1 G481K) [%] | inhibition at 6.25 ppm (AtPPO1 K281E) [%] | inhibition at 6.25 ppm (AtPPO1 P154Y) [%] | inhibition at 6.25 ppm (AtPPO1 Q272I) [%] | inhibition at 0.78 ppm (AtPPO1 G481K) [%] | inhibition at 0.78 ppm (AtPPO1 K281E) [%] | inhibition at 0.78 ppm (AtPPO1 P154Y) [%] | inhibition at 0.78 ppm (AtPPO1 Q272I) [%]
1 | CC(C)N(C)S(=O)(=O)NC(=O)c1cc(-n2c(=O)cc(C(F)(F)F)n(C)c2=O)c(F)cc1Cl [Herbicide E, saflufenacil] | 0 | 61 | 68 | 63 | – | – | – | –
2 | C#CCN1C(=O)C(F)(F)Oc2cc(F)c(-n3c(=O)n(C)c(=S)n(C)c3=O)cc21 [Herbicide B, trifludimoxazin] | – | – | – | – | 10 | 37 | 34 | 24
3 | CCOC(=O)[C@]1(C)CC(c2cc(-n3c(=O)n(C)c(=S)n(C)c3=O)c(F)cc2Cl)=NO1 [Herbicide D, ethyl (5S)-3-[2-chloro-5-(3,5-dimethyl-2,6-dioxo-4-thioxo-1,3,5-triazinan-1-yl)-4-fluoro-phenyl]-5-methyl-4H-isoxazole-5-carboxylate] | 12 | 33 | 38 | 29 | – | – | – | –
